{"source": "patent US8361968B2", "about": "(Takeda Pharmaceutical Company Limited, priority 2002, dated 2013)", "note": "Numbered stars: 1 amine (or outer) side, 2 acyl side, 3 side chain; on linkers, the order of the positions; unused ones are H or OH. Square brackets hold non-standard residues; d marks the D form. Peptide text beside a SMILES is read from it. * marks the point of attachment. X11 = O=C(CNC(=S)[C@H](Cc1ccccc1)N[*:1])[*:2]; 2Nal = N[C@@H](Cc1ccc2ccccc2c1)C(=O)O; Arg(Me) = CNC(=N)NCCC[C@H](N)C(=O)O; Fmoc = O=C(OCC1c2ccccc2-c2ccccc21)*; 4Pal = N[C@@H](Cc1ccncc1)C(=O)O; X3 = NC(=S)[C@H](Cc1ccccc1)N*"}
{"biological_target": "hOT7T175 (Homo sapiens, UniProt Q969F8, L364H)", "sequence (Q969F8 whole entry L364H)": "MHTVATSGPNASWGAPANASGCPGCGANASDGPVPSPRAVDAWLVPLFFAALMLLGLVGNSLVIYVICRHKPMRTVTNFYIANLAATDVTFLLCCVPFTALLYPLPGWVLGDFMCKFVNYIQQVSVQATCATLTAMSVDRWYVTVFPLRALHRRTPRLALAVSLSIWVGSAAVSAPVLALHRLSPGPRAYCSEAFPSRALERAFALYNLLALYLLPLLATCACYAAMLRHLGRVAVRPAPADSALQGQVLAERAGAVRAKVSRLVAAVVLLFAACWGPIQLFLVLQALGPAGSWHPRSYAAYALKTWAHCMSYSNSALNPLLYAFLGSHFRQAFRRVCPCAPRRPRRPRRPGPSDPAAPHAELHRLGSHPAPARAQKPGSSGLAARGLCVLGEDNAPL", "assay": "Intracellular Ca ion level-increasing activity using FLIPR in hOT7T175/CHO", "assay_type": "cell-based", "design": "expressed in transfected cells; host or cells: CHO/dhfr- cells, obtained from ATCC", "conditions": "relative, Metastin (1-54) = 1", "description": "Assay for Intracellular Ca Ion Level-Increasing Activity Using Flipr\nIn accordance with the method described in JPA 2000-312590, the intracellular Ca ion level-increasing activity was measured using FLIPR.\nThe stable expression cell line hOT7T175 was acquired by transduction of expression plasmid pAK-rOT175 for animal cells into CHO/dhff cells, using CellPhect Transfection Kit (Amersham Pharmacia Biotech, Inc.). First, 240 μL of Buffer A (attached to CellPhect Transfection Kit) was added to 9.6 μg of plasmid DNA dissolved in 240 μl of distilled water, followed by stirring. After settling the mixture for 10 minutes, 480 μL of Buffer B (attached to CellPhect Transfection Kit) was added to the mixture, which was vigorously stirred to form DNA-containing liposomes. Then, 4×10^5 CHO/dhff cells (obtained from ATCC) were inoculated on a 60 mm Petri dish. […] After culturing the cells at 37° C. for 6 hours in 5% carbon dioxide gas, the cells were washed twice with serum-free Ham's F-12 medium and 3 ml of 15% glycerol was added to the cells in the Petri dish to treat for 2 minutes. The cells were again washed twice with serum-free Ham's F-12 medium followed by incubation in Ham's F-12 medium supplemented with 10% fetal bovine serum at 37° C. for 15 hours in 5% carbon dioxide gas. The cells were dispersed by trypsin treatment and recovered from the Petri dish. The recovered cells were inoculated on a 6-well plate in 1.25×10^4 cells/well and incubation was initiated at 37° C. in Dulbecco's modified Eagle medium (DMEM) medium (Nissui Seiyaku Co., Ltd.) containing 10% dialyzed fetal bovine serum (JRH BIOSCIENCES, Inc.) under 5% carbon dioxide gas. […] The medium was exchanged on Days 1 and 2 to remove the cells died.\nThe intracellular Ca ion level-increasing activity of the synthetic peptide in hOT7T175/CHO was determined using FLIPR (Molecular Devices, Inc.).\nhOT7T175/CHO was subcultured in DMEM supplemented with 10% dialyzed fetal bovine serum (hereinafter abbreviated as dFBS) and provided for the experiment (hereinafter abbreviated as 10% dFBS/DMEM). The hOT7T175/CHO was suspended in 10% dFBS-DMEM in 15×10^4 cells/ml. The suspension was inoculated on a 96-well plate for FLIPR (Black Plate Clear Bottom, Coster, Inc.) at 200 μL each (3.0×10^4 cells/200 μL/well), followed by incubation at 37° C. overnight in a 5% CO2 incubator (hereinafter simply referred to as the cell plate). Then, 21 ml of HANKS/HBSS (9.8 g of HANKS, 0.35 g of sodium hydrogencarbonate, 20 ml of 1M HEPES; after adjusting the pH to 7.4 with 1N sodium hydroxide, the mixture was sterilized by filtration), 210 μl of 250 mM Probenecid and […] of fetal bovine serum (FBS) were mixed (HANKS/HBSS-Probenecid-FBS).\nFurthermore, 2 vials of Fluo3-AM (50 μug/vial) were dissolved in 21 μL of dimethylsulfoxide and 21 μL of 20% Pluronic acid. The resulting solution was added to and mixed with 10 ml of HANKS/HBSS-Probenecid-FBS described above. After the culture medium was removed, the mixture was dispensed onto the cell plate in 100 μL each/well, followed by incubation at 37° C. for an hour in a 5% CO2 incubator (pigment loading). The peptide was dissolved in dimethylsulfoxide in 1×10^−3 M. The peptide solution was diluted with HANKS/HBSS containing 2.5 mM Probenecid, 0.2% BSA and 0.1% CHAPS."}
{"molecule": "2-Aminoethyl-Gly-D-Tyr-Asn-Trp-Asn-Ser-Phe-Gly-Leu-Arg(Me)-Phe-NH2 [Compound No. 375]", "Specific Activity (intracellular Ca ion level-increasing activity)": 2}
{"molecule": "3-Pyridylpropionyl-Asn-Ser-Phe-AzaGly-Leu-Arg(Me)-Trp-NH2 [Compound No. 386]", "Specific Activity (intracellular Ca ion level-increasing activity)": 7}
{"molecule": "CC(C)C[C@H](NC(=O)CNC(=O)[C@H](Cc1ccccc1)NC(=O)[C@H](CO)NC(=O)[C@H](CC(N)=O)NC(=O)[C@H](Cc1c[nH]c2ccccc12)NC(=O)[C@H](CC(N)=O)NC(=O)[C@@H](N)Cc1ccc(O)cc1)C(=O)N[C@@H](CCCNC(=N)N)C(=O)N[C@@H](Cc1ccncc1)C(N)=O", "note": "[Compound No. 17] (H-YNWNSFGLR[4Pal]-NH2)", "Specific Activity (intracellular Ca ion level-increasing activity)": 5}
{"molecule": "CC(C)C[C@H](NC(=O)CNC(=O)[C@H](Cc1ccccc1)NC(=O)[C@H](CO)NC(=O)[C@H](CC(N)=O)NC(=O)[C@H](Cc1c[nH]c2ccccc12)NC(=O)[C@H](CC(N)=O)NC(=O)[C@@H](N)Cc1ccc(O)cc1)C(=O)N[C@@H](CCCNC(=N)N)C(=O)N[C@@H](Cc1ccccc1F)C(N)=O", "note": "[Compound No. 19]", "Specific Activity (intracellular Ca ion level-increasing activity)": 2}
{"molecule": "CC(C)C[C@H](NC(=O)CNC(=O)[C@H](Cc1ccccc1)NC(=O)[C@H](CC(C)C)NC(=O)[C@H](CC(N)=O)NC(=O)[C@H](Cc1c[nH]c2ccccc12)NC(=O)[C@H](CC(N)=O)NC(=O)[C@@H](N)Cc1ccc(O)cc1)C(=O)N[C@@H](CCCNC(=N)N)C(=O)N[C@@H](Cc1ccccc1)C(N)=O", "note": "[Compound No. 24] (H-YNWNLFGLRF-NH2)", "Specific Activity (intracellular Ca ion level-increasing activity)": 1}
{"molecule": "CC(=O)N[C@@H](Cc1ccc(O)cc1)C(=O)N[C@@H](CC(N)=O)C(=O)N[C@@H](Cc1c[nH]c2ccccc12)C(=O)N[C@@H](CC(N)=O)C(=O)N[C@@H](CO)C(=O)N[C@@H](Cc1ccccc1)C(=O)NCC(=O)N[C@@H](CC(C)C)C(=O)N[C@@H](CCCNC(=N)N)C(=O)N[C@@H](Cc1ccccc1)C(N)=O", "note": "[Compound No. 30]", "Specific Activity (intracellular Ca ion level-increasing activity)": 10}
{"molecule": "CC(C)C[C@H](NC(=O)CNC(=O)[C@H](Cc1ccccc1)NC(=O)[C@H](CO)NC(=O)[C@H](CC(N)=O)NC(=O)[C@H](Cc1c[nH]c2ccccc12)NC(=O)[C@H](CC(N)=O)NC(=O)[C@H](Cc1ccc(O)cc1)NC(=O)OCC1c2ccccc2-c2ccccc21)C(=O)N[C@@H](CCCNC(=N)N)C(=O)N[C@@H](Cc1ccccc1)C(N)=O", "note": "[Compound No. 31]", "Specific Activity (intracellular Ca ion level-increasing activity)": 2}
{"molecule": "CC(C)C[C@H](NC(=O)CNC(=O)[C@H](Cc1ccccc1)NC(=O)[C@H](CO)NC(=O)[C@H](CC(N)=O)NC(=O)[C@@H](Cc1c[nH]c2ccccc12)NC(=O)[C@H](CC(N)=O)NC(=O)[C@@H](N)Cc1ccc(O)cc1)C(=O)N[C@@H](CCCNC(=N)N)C(=O)N[C@@H](Cc1ccccc1)C(N)=O", "note": "[Compound No. 40]", "Specific Activity (intracellular Ca ion level-increasing activity)": 30}
{"molecule": "CC(C)C[C@H](NC(=O)CNC(=O)[C@H](Cc1ccccc1)NC(=O)[C@H](CO)NC(=O)[C@H](CC(N)=O)NC(=O)[C@H](Cc1c[nH]c2ccccc12)NC(=O)[C@@H](CC(N)=O)NC(=O)[C@@H](N)Cc1ccc(O)cc1)C(=O)N[C@@H](CCCNC(=N)N)C(=O)N[C@@H](Cc1ccccc1)C(N)=O", "note": "[Compound No. 41]", "Specific Activity (intracellular Ca ion level-increasing activity)": 10}
{"molecule": "CC(C)C[C@H](NC(=O)CNC(=O)[C@H](Cc1ccccc1)NC(=O)[C@H](CO)NC(=O)[C@H](CC(N)=O)NC(=O)[C@H](Cc1c[nH]c2ccccc12)NC(=O)OCC1c2ccccc2-c2ccccc21)C(=O)N[C@@H](CCCNC(=N)N)C(=O)N[C@@H](Cc1ccccc1)C(N)=O", "note": "[Compound No. 54] (Fmoc-WNSFGLRF-NH2)", "Specific Activity (intracellular Ca ion level-increasing activity)": 5}
{"molecule": "CC(C)C[C@H](NC(=O)CNC(=O)[C@H](Cc1ccccc1)NC(=O)[C@H](CO)NC(=O)[C@H](CC(N)=O)NC(=O)[C@H](Cc1c[nH]c2ccccc12)NC(=O)[C@H](CC(N)=O)NC(=O)[C@@H](N)Cc1ccc(O)cc1)C(=O)N[C@@H](CCCNC(=N)N)C(=O)N[C@@H](Cc1ccc2ccccc2c1)C(N)=O", "note": "[Compound No. 110] (H-YNWNSFGLR[2Nal]-NH2)", "Specific Activity (intracellular Ca ion level-increasing activity)": 20}
{"molecule": "CC(C)C[C@H](NC(=O)CNC(=O)[C@H](Cc1ccccc1)NC(=O)[C@H](CO)NC(=O)[C@H](CC(N)=O)NC(=O)[C@H](Cc1c[nH]c2ccccc12)NC(=O)[C@H](CC(N)=O)NC(=O)[C@@H](N)Cc1ccc(O)cc1)C(=O)N[C@@H](CCCNC(=N)N)C(=O)N[C@@H](Cc1ccccc1)C(N)=S", "note": "[Compound No. 128] (H-YNWNSFGLR-X3)", "Specific Activity (intracellular Ca ion level-increasing activity)": 10}
{"molecule": "CC(C)C[C@H](NC(=O)CNC(=O)[C@H](Cc1ccccc1)NC(=O)[C@H](CO)NC(=O)[C@H](CC(N)=O)NC(=O)[C@H](Cc1c[nH]c2ccccc12)NC(=O)[C@H](CC(N)=O)NC(=O)[C@@H](N)Cc1ccc(O)cc1)C(=O)N[C@@H](CCCNC(=N)N)C(=O)N[C@@H](Cc1ccc([N+](=O)[O-])cc1)C(N)=O", "note": "[Compound No. 132]", "Specific Activity (intracellular Ca ion level-increasing activity)": 10}
{"molecule": "CC(C)C[C@H](NC(=O)CNC(=O)[C@H](Cc1ccc2ccccc2c1)NC(=O)[C@H](CO)NC(=O)[C@H](CC(N)=O)NC(=O)[C@H](Cc1c[nH]c2ccccc12)NC(=O)[C@H](CC(N)=O)NC(=O)[C@@H](N)Cc1ccc(O)cc1)C(=O)N[C@@H](CCCNC(=N)N)C(=O)N[C@@H](Cc1ccccc1)C(N)=O", "note": "[Compound No. 152, Tyr-Asn-Trp-Asn-Ser-Nal(2)-Gly-Leu-Arg-Phe-NH2] (H-YNWNS[2Nal]GLRF-NH2)", "Specific Activity (intracellular Ca ion level-increasing activity)": 5}
{"molecule": "CC(C)C[C@H](NC(=O)CNC(=O)[C@H](Cc1ccc(F)cc1)NC(=O)[C@H](CO)NC(=O)[C@H](CC(N)=O)NC(=O)[C@H](Cc1c[nH]c2ccccc12)NC(=O)[C@H](CC(N)=O)NC(=O)[C@@H](N)Cc1ccc(O)cc1)C(=O)N[C@@H](CCCNC(=N)N)C(=O)N[C@@H](Cc1ccccc1)C(N)=O", "note": "[Compound No. 154, Tyr-Asn-Trp-Asn-Ser-Phe(4F)-Gly-Leu-Arg-Phe-NH2]", "Specific Activity (intracellular Ca ion level-increasing activity)": 5}
{"molecule": "CC(C)C[C@H](NC(=O)CNC[C@H](Cc1ccccc1)NC(=O)[C@H](CO)NC(=O)[C@H](CC(N)=O)NC(=O)[C@H](Cc1c[nH]c2ccccc12)NC(=O)[C@H](CC(N)=O)NC(=O)[C@@H](N)Cc1ccc(O)cc1)C(=O)N[C@@H](CCCNC(=N)N)C(=O)N[C@@H](Cc1ccccc1)C(N)=O", "note": "[Compound No. 163, Tyr-Asn-Trp-Asn-Ser-PheΨ(CH2NH)Gly-Leu-Arg-Phe-NH2]", "Specific Activity (intracellular Ca ion level-increasing activity)": 1}
{"molecule": "CC(C)C[C@H](NC(=O)CNC(=S)[C@H](Cc1ccccc1)NC(=O)[C@H](CO)NC(=O)[C@H](CC(N)=O)NC(=O)[C@H](Cc1c[nH]c2ccccc12)NC(=O)[C@H](CC(N)=O)NC(=O)[C@@H](N)Cc1ccc(O)cc1)C(=O)N[C@@H](CCCNC(=N)N)C(=O)N[C@@H](Cc1ccccc1)C(N)=O", "note": "[Compound No. 166, Tyr-Asn-Trp-Asn-Ser-Phe Ψ(CSNH)Gly-Leu-Arg-Phe-NH2] (H-YNWNS[X11]LRF-NH2)", "Specific Activity (intracellular Ca ion level-increasing activity)": 5}
{"molecule": "CNC(=N)NCCC[C@H](NC(=O)[C@H](CC(C)C)NC(=O)CNC(=O)[C@H](Cc1ccccc1)NC(=O)[C@H](CO)NC(=O)[C@H](CC(N)=O)NC(=O)[C@H](C)NC(=O)[C@H](CC(N)=O)NC(=O)[C@H](N)Cc1ccc(O)cc1)C(=O)N[C@@H](Cc1ccccc1)C(N)=O", "note": "[Compound No. 169] (H-[dY]NANSFGL[Arg(Me)]F-NH2)", "Specific Activity (intracellular Ca ion level-increasing activity)": 2}
